How the values were obtained:
[1] = system: E. coli (ATCC 8739) / C. albicans (ATCC 10231); experiment: MIC of permeabilizer co-dosants with and without Tgase variant; assay type: cell-based; conditions: for Co-Dosant MIC, with Tgase variant: with Tgase variant A3 (SEQ ID NO: 4): 12.5 ppm with polymyxin B, 200 ppm with chlorhexidine and with the mixture
Description: E. coli (ATCC 8739) and C. albicans (ATCC 10231) were acquired from the American Type Culture Collection (ATCC) (Manassas, VA) and maintained as −80° C. frozen glycerol stocks.
The following day, the cell density of the saturated cultures was calculated using OD600 and cultures were diluted to 104 to 10^6 CFU/mL in sterile Mueller Hinton broth to generate the inoculum, and 100 μL of the inoculum was combined with 100 μL of serially diluted Tgase variant A3 (SEQ ID NO: 4) at a range of 0.0001-0.05 weight percent. Growth curves were measured by OD600 on a BioTek® Synergy Plate Reader. All test conditions were performed in triplicate. MIC was determined to be […] (0.005% w/v) against E. coli for the enzyme described in SEQ ID NO: 4 using OD600.
For MIC determination of yeast cultures, C. albicans (ATCC 10231) was grown overnight (24 hours) in Sabouraud Dextrose broth at 30° C. The following day, the cell density of the saturated cultures was calculated using OD600 and cultures were diluted to 104 to 10^6 CFU/mL in sterile Sabouraud Dextrose broth media to generate the inoculum, and 100 μL of the inoculum was combined with 100 μL of serially diluted Tgase variant at a range of 0.0001-0.05 weight percent. The cultures were grown overnight at 30° C. and growth curves were measured by OD600 on a BioTek® Synergy Plate Reader. All test conditions were performed in triplicate. MIC was determined to be […] (0.005% w/v) against C. albicans for the enzyme described in SEQ ID NO: 4 using OD600.
Aseptilase activities of Tgase variant A3 (SEQ ID NO: 4) in combination with each of the three permeabilizer co-dosants, polymyxin B, chlorhexidine, and a 10000:4000:1 mixture by weight of sodium hexametaphosphate, phytic acid and chlorhexidine, were tested. […] The experiments were performed as described in Example 5. The co-dosants were added into Tgase variant A3 (SEQ ID NO: 4) solutions at concentrations of 0.125 g/L, 0.05 g/L, and 350 mM, respectively. The results are shown in Table 12 with Tgase concentrations reported within the table at the best MIC.

E. coli = experiment: Preservative efficacy in body lotion against E. coli; assay type: cell-based; conditions: 0.005% in combinations, phenoxyethanol 0.7% alone, 0.3% combined, caprylyl glycol 0.7% alone, 0.35% combined, sodium benzoate 0.5% + EDTA 0.5%, 2% 2:1 propanediol:hexanediol, 0.5% CHA solution
Description: (§1) A vessel was filled with deionized water, placed under an overhead stirrer set to moderate mixing, and heated to 75-80° C. Glycerin was added to 2% and mixed until dissolved, followed by xanthan gum to 0.2%. At 75-80° C., cetearyl glucoside and cetearyl alcohol were added to 4% and 3%. Once both had melted fully, milk thistle seed oil was added and the batch was homogenized with a Silverson homogenizer with the standard emulsion screen until the batch had turned milky white. The batch was removed from heat and returned to propellor mixing with decreased speed to allow the emulsion to set up. At 40° C., pH was adjusted to pH 5.5-6.0 using citric acid or sodium hydroxide and split into several portions and allowed to finish cooling. Once cooled to room temperature, one portion of the body lotion was left unpreserved and the remaining portions were preserved with one or more substances selected from aseptilase, phenoxyethanol, caprylyl glycol, sodium benzoate, and EDTA. All samples were inoculated with E. coli (10^6 CFU/mL) and C. albicans (10^5 CFU/mL) and plated after 2 and 7 days.

C. albicans = experiment: Preservative efficacy in body lotion against C. albicans; assay type: cell-based; conditions: 0.005% in combinations, phenoxyethanol 0.7% alone, 0.3% combined, caprylyl glycol 0.7% alone, 0.35% combined, sodium benzoate 0.5% + EDTA 0.5%, 2% 2:1 propanediol:hexanediol, 0.5% CHA solution
Description: as §1

collagen = experiment: Collagen-modifying activity with FITC-gelatin or FITC-cadaverine; assay type: biochemical; conditions: 16 hours, pH 7.4
Description: Substrate specificity for collagen of Tgase variant A3 (SEQ ID NO: 4) was tested by allowing the variant to react with either fluorescein-labeled gelatin (FITC-Gelatin, to test protein-protein cross-linking) or fluorescein-labeled cadaverine (FITC-cadaverine, to test protein-small molecule cross-linking) with a collagen layer deposited on the bottom of a 96-well microtiter plate. Tgase variant A3 (SEQ ID NO: 4) and wild-type Tgase were diluted to 4-800 ppm in 50 mM phosphate buffer, pH 7.4, supplemented with 100 mM NaCl in 96-well collagen coated microtiter plates. Either FITC-gelatin or FITC-cadaverine was added to 1 g/L (final volume 100 μL) and the plates were sealed and incubated at either 37° C. or 50° C. for 16 hours. The reaction supernatants were carefully removed and then 200 μL 50 mM [COMPOUND LEFT OUT] mM NaCl, pH 7.4 buffer was added gently against the side of each well then carefully removed. This wash step was repeated. The plate-bound material was extracted by vigorously pipetting 100 μL dimethylsulfoxide into each well, then the extract was transferred into a black bottom 96-well plate. The fluorescence of the samples was measured at an excitation wavelength of 487 nm and an emission wavelength of 528 nm. The fluorescence signal is assumed to be proportionate to the concentration of fluorescent product extracted from the surface of the plate. For both FITC-gelatin and FITC-cadaverine, the fluorescence response per concentration enzyme was higher for wells treated with Tgase variant A3 (SEQ ID NO: 4) than for wells treated with wild-type Tgase (Table 11).

[2] = Thermal stability at 55 °C, specific activity by colorimetric hydroxamate assay; assay type: biochemical
Description: Tgase activity was measured herein using a colorimetric hydroxamate activity assay (Folk and Cole (1965) J Biol Chemistry 240 (7): 2951-2960). Briefly, the hydroxamate assay uses N-benzyloxycarbonyl-L-glutaminyl-glycine (ZQG) as a low molecular weight amine acceptor substrate and hydroxylamine as an amine donor. In the presence of catalytically active Tgase, the hydroxylamine is incorporated to form Z-glutamylhydroxamate-glycine, which develops a colored complex with iron (III), detectable at 525 nm after incubation at 37° C. for 5-200 minutes. The calibration was performed using L-glutamic acid gamma-monohydroxamate (Millipore® Sigma®) as a standard. One unit of Tgase was defined as the amount of enzyme that catalyzes formation of 1 μmol of the peptide derivative of gamma-glutamylhydroxylamine per minute. Activity of Tgase variants is depicted in Tables 2-4.
A commercially available wild-type Tgase (Ajinimoto®, Activa® TI formulation) formulated at 0.75-1.0% enzyme in maltodextrin was purchased from Amazon.com and dissolved in water at 20% w/v. The concentration of the mature Tgase in the solution was confirmed by high-performance liquid chromatography (HPLC) and the sample was further diluted to 0.1 g/L of enzyme. Following dilution, the enzyme was subjected to the hydroxamate assay as described in Example 4 to determine specific activity. The specific activity of the commercial wild-type Tgase compared to Tgase variant A3 (SEQ ID NO: 4), further comprising an N-terminal methionine, is shown in FIG. 1.
The thermal stability of Tgase variant A3 (SEQ ID NO: 4) compared to the commercial wild-type Tgase was evaluated by incubating the samples at 55° C. and testing the enzyme concentration and activity at various timepoints. Six timepoints were tested: 0, 30, 60, 120, 240, and 480 minutes.
The enzyme concentration was measured by HPLC. The samples were diluted 10-fold in 50 mM phosphate pH 7.4, 100 mM NaCl. The samples were tested by reverse phase using a Zorbax SB300-C8 column with 0.1% trifluoroacetic acid in water (MPA) and 0.08% trifluoroacetic acid in acetonitrile (MPB).
The activity was determined using the colorimetric activity assay described in Example 4A. The specific activity (U/mg) of the samples was calculated using the concentration of each sample as determined per Example 4D (results shown in Table 10).

[H]/N=C(\N/C(=N/[H])NCCCCCCNC(=N)NC(=N)Nc1ccc(Cl)cc1)Nc1ccc(Cl)cc1 [Chlorhexidine, reference compound]
MIC ([1]; read-out: Co-Dosant MIC, without Tgase variant): 2 µg/mL | Co-Dosant MIC, with Tgase variant [1]: 1 ppm

CCCCCCC(O)CO (stereo not shown) [caprylyl glycol]
Preservative efficacy against E. coli, log reduction (E. coli; day 2, aseptilase 0.01% alone): 5.00 log reduction in CFU/mL | Preservative efficacy against E. coli, log reduction (E. coli; day 7, aseptilase 0.01% alone): 5.00 log reduction in CFU/mL | Preservative efficacy against C. albicans, log reduction (C. albicans; day 2, aseptilase 0.01% alone): 1.18 log reduction in CFU/mL | Preservative efficacy against C. albicans, log reduction (C. albicans; day 7, aseptilase 0.01% alone): 2.70 log reduction in CFU/mL

OCCOc1ccccc1 [phenoxyethanol]
Preservative efficacy against E. coli, log reduction (E. coli; day 2, aseptilase 0.01% alone): 2.15 log reduction in CFU/mL | Preservative efficacy against E. coli, log reduction (E. coli; day 7, aseptilase 0.01% alone): 3.00 log reduction in CFU/mL | Preservative efficacy against C. albicans, log reduction (C. albicans; day 2, aseptilase 0.01% alone): 0.68 log reduction in CFU/mL | Preservative efficacy against C. albicans, log reduction (C. albicans; day 7, aseptilase 0.01% alone): 1.73 log reduction in CFU/mL

Polymyxin B [reference compound]
Co-Dosant MIC, with Tgase variant [1]: 0.156 ppm | Co-Dosant MIC, without Tgase variant ([1]; without Tgase variant): 0.625 ppm

B1: Wild-type Tgase: commercially available wild-type Tgase (Ajinimoto, Activa TI formulation) formulated at 0.75-1.0% enzyme in maltodextrin (protein, UniProt P81453 77-407, looked up)
Protein-glutamine …: DSDDRVTPPAEPLDRMPDPYRPSYGRAETVVNNYIRKWQQVYSHRDGRKQQMTEEQREWLSYGCVGVTWVNSGQYPTNRLAFASFDEDRFKNELKNGRPRSGETRAEFEGRVAKESFDEEKGFQRAREVASVMNRALENAHDESAYLDNLKKELANGNDALRNEDARSPFYSALRNTPSFKERNGGNHDPSRMKAVIYSKHFWSGQDRSSSADKRKYGDPDAFRPAPGTGLVDMSRDRNIPRSPTSPGEGFVNFDYGWFGAQTEADADKTVWTHGNHYHAPNGSLGAMHVYESKFRNWSEGYSDFDRGAYVITFIPKSWNTAPDKVKQGWP
modifications: formulated in maltodextrin
Fluorescence/[Enzyme] (collagen; FITC-Cadaverine, 37 °C): 6.7 RFU/ppm | Fluorescence/[Enzyme] (collagen; FITC-Cadaverine, 50 °C): 4.4 RFU/ppm | Fluorescence/[Enzyme] (collagen; FITC-Gelatin, 37 °C): 4.6 RFU/ppm | Fluorescence/[Enzyme] (collagen; FITC-Gelatin, 50 °C): 6.8 RFU/ppm | Specific activity ([2]; timepoint 0 min): 23.3 U/mg | Specific activity ([2]; timepoint 30 min): 31.0 U/mg | Specific activity ([2]; timepoint 60 min): 27.0 U/mg | Specific activity ([2]; timepoint 120 min): 29.3 U/mg | Specific activity ([2]; timepoint 240 min): 36.8 U/mg | Specific activity ([2]; timepoint 480 min): 21.2 U/mg

Reference: patent US20260327578A1, “TRANSGLUTAMINASES AND USES THEREOF” (CURIE CO. INC., priority 2023, published 2026)
